Values of other authors, collected in patent US20250144120A1, “COMPOSITIONS AND METHODS FOR TREATING SKIN CONDITIONS” (priority 2023, published 2025).

SMILES: CCCCCCCCCCCCCCCCCCCCC[N+](C)(C)[Si](O)(O)O.[Cl-] [Octadecyldimethyltrihydroxysilyl propyl ammonium chloride]
- eye irritation (eyes (rabbits)): does not irritate
- LD50 via ingestion (animal subjects; ingestion): > 5000 mg/kg
- LD50 via inhalation (animal subjects; inhalation): > 2 mg/L
- skin irritation (skin (guinea pigs)): does not irritate
- skin irritation (skin (rabbits)): does not irritate
